Five molecules from PMC10865409, “The prFMNH2-binding chaperone LpdD assists UbiD decarboxylase activation” (The Journal of Biological Chemistry, 2024) can be followed below.

Numbering of substitutions follows the chain as printed. Names and notes keep the numbering of the source.

Series [1] has as its target T1, LpdD (Lactiplantibacillus plantarum, UniProt F9UT68).
T1 construct: full length, N-terminal hexahistidine tag (best crystals; C-terminal also made), E. coli codon-optimized gene, E. coli BL21(DE3), Ni-NTA; dimer
T1 sequence (F9UT68 1-136): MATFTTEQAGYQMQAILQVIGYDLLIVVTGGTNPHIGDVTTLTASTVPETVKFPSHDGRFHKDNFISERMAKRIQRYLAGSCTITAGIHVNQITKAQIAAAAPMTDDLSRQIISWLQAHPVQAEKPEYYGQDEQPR
In words: UV-Vis after in vitro reconstitution and desalting. Format: binding. The note with it: anaerobic, 2:1 prFMNH2:protein, 50 mM Tris pH 7.5, 200 mM NaCl, with or without MnCl2.

In series [2] the target is T2, LpdD (Lactiplantibacillus plantarum, UniProt F9UT68, H61A).
T2 construct: full length, N-terminal hexahistidine tag (best crystals; C-terminal also made), E. coli codon-optimized gene, E. coli BL21(DE3), Ni-NTA; dimer
Description: UV-Vis after in vitro reconstitution and desalting. Format: binding. The conditions noted are these: anaerobic, 2:1 prFMNH2:protein, 50 mM Tris pH 7.5, 200 mM NaCl, 1 mM MnCl2.

Series [3] addresses T3, UbiD (Strep-tagged apo-UbiD) (Escherichia coli, UniProt P0AAB4).
T3 construct: Strep-tagged, purified apo-UbiD reconstituted with LpdD-containing E. coli lysate and prFMNH2; 4-hydroxybenzoate row is endogenous UbiD of E. coli BL21(DE3)
T3 sequence (P0AAB4 1-497): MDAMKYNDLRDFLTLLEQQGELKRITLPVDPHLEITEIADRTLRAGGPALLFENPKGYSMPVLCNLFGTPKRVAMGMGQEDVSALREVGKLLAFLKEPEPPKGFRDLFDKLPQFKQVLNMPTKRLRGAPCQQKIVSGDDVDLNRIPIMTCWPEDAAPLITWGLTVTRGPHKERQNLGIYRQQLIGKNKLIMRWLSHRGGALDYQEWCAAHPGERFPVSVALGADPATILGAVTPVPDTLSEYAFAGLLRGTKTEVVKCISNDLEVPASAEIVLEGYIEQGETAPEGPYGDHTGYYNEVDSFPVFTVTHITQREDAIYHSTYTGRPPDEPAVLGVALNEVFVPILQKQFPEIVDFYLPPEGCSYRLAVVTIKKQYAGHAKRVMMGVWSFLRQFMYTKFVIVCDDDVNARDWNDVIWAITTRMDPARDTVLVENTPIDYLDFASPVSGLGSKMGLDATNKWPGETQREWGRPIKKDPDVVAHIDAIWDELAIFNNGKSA
Description: decarboxylation by HPLC; Strep-UbiD plus LpdD-containing lysate. Format: biochemical. The conditions noted are these: anaerobic; LpdD lysate supernatant with or without prFMNH2; purified UbiD alone inactive.

The target of series [4] is T3, UbiD (Strep-tagged apo-UbiD). Description: ESI-MS of reconstituted Strep-UbiD. The series is classed as binding. The note with it: reconstituted with LpdD-containing cell lysate and prFMNH2.
Series [5] deals with the molecule itself. In words: crystal structure; N-terminally His-tagged LpdD, ca 15 mg/ml, 1.6 M magnesium sulfate heptahydrate, 0.1 M Mes pH 6.5, 20 °C; space group I222, two monomers in the asymmetric unit; dimer built by crystallographic symmetry.
For series [6], the target named is T4, Strep-tagged Escherichia coli UbiD (Escherichia coli, UniProt P0AAB4 1-497).
T4 construct: UbiD, prFMN-dependent decarboxylase of ubiquinone biosynthesis, Escherichia coli; also called Strep-UbiD; Strep-apo-UbiD; source: purified
T4 sequence (looked up): T3 sequence (P0AAB4 1-497)
In words: pull-down; Strep-tagged UbiD and His-tagged LpdD mixed in an equimolar ratio, pulled down with streptavidin beads under anaerobic conditions; SDS-PAGE and His-Western blot. The conditions noted are these: both partners purified. (In general: In western blotting, separated proteins are transferred to a membrane and probed.)

Series [7] deals with the molecule itself. Description: crystal structure; LpdD H35A, space group P4_(1)2_(1)2, one molecule in the asymmetric unit, distinct crystallization conditions; dimer built by crystallographic symmetry.

T2 sequence (F9UT68 whole entry H61A): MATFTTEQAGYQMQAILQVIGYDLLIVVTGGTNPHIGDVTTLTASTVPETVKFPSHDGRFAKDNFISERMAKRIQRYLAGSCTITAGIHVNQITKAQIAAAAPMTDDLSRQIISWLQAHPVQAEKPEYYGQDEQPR

As to `Cc1cc2c3c(c1C)C(C)(C)CCN3c1c([nH]c(=O)[nH]c1=O)N2C[C@H](O)[C@H](O)[C@H](O)COP(=O)(O)O` [prFMNH2], the “UV-Vis after in vitro reconstitution and desalting” value at LpdD [1] was “In vitro reconstitution of purified apo-LpdD with prFMNH2 results in similar spectral features”; on LpdD [2], “purified H61A variant reveals this mutation does not abolish prFMNH2 binding”.

As to `O=C(O)c1ccc(O)c(O)c1` [compound 2, 3,4-dihydroxy-benzoic acid], in series [3], the “decarboxylation by HPLC; Strep-UbiD plus LpdD-containing lysate” value is “activity was observed when LpdD-containing cell lysate supernatant was included in the assays”.

`Cc1cc2c3c(c1C)C(C)(C)CC=[N+]3c1c(nc([O-])[nH]c1=O)N2C[C@H](O)[C@H](O)[C@H](O)COP(=O)(O)O` [prFMN^iminium]: the “ESI-MS of reconstituted Strep-UbiD” value in series [4] is “reconstituted Strep-UbiD reveals the presence of catalytically relevant prFMN^iminium species”.

B1: LpdD (lp_0272) from Lactobacillus plantarum, His-tagged (natural protein)
chain: T1 sequence (F9UT68 1-136)
notes: LpdD, small protein associated with the UbiD-type gallate decarboxylase LpdC, Lactobacillus plantarum, locus lp_0272; E. coli codon-optimized synthetic gene; N- and C-terminally His-tagged LpdD were both made (pET28a and pET30a); the best crystals came from the N-terminally tagged protein; The pull-down says only 'His-tagged LpdD'; The tag is detected by His-Western blot in the pull-down; also …
In the case of B1, the “stoichiometry N” value in series [5] stood at 2. For the same molecule, the binding result in series [6] was “binds”.

B2: LpdD H35A variant (natural protein, Lactobacillus plantarum)
chain: T1 sequence (F9UT68 1-136) with H35A
notes: LpdD, Lactobacillus plantarum, locus lp_0272, with H35A made by site-directed mutagenesis of the WT construct; source: E. coli BL21(DE3), purified
For the molecule B2, in series [7], the “stoichiometry N” value was 2.

Usually stoichiometry N stands for the number of molecules, sites or subunits per partner or assembly.
